Data as given in patent US11072632B2, “Inhibitors of 17β-HSD1, 17β-HSD3 and 17β-HSD10” (UNIVERSITÉ LAVAL, priority 2011, dated 2021).
Like-named read-outs stand apart in the source and are kept apart here.

Key:
17β-HSD3 [1] = target: T1, 17β-HSD3 (Homo sapiens, UniProt P37058); test: Inhibition of 17β-HSD3 in homogenated HEK-293 cells; format: biochemical
T1 construct: expressed in transfected cells; host or cells: HEK-293 (homogenate)
T1 sequence (P37058 1-310): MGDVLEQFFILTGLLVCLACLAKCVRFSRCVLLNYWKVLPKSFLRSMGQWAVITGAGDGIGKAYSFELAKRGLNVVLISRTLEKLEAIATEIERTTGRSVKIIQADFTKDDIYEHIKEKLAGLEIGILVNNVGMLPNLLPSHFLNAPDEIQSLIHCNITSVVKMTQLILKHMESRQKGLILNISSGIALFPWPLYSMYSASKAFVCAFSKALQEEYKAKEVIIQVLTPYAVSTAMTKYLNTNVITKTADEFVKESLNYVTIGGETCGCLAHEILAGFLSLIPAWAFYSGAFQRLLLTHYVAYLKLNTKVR

17β-HSD3 [2] = target: T1, 17β-HSD3; test: Inhibition of 17β-HSD3 in intact HEK-293 cells; format: cell-based; conditions: for Intact cells (%) (0.1 μM), tested in another experiment: Table 4, footnote b; for inhibition at 0.1 µM / inhibition at 1 µM: HEK293, 1 h
[3] = read-out: Homo (%) (0.01 μM), Table 4
[4] = read-out: Homo (%) (0.1 μM), Table 4
[5] = read-out: Homo (%) (1.0 μM), Table 4, 1.0 μM
[6] = Table 3, read-out: Homo (%) (0.01 μM)
[7] = Table 3, read-out: Homo (%) (0.1 μM)
[8] = Table 3, read-out: Intact cells (%) (0.1 μM)
[9] = Table 2 (17β-HSD3), [14C]-Δ4-dione 50 nM into [14C]-T, read-out: Homo (%) (0.01 μM)
[10] = read-out: Homo (%) (0.1 μM), Table 2 (17β-HSD3)
[11] = read-out: Homo (%) (1 μM), Table 2 (17β-HSD3), 1 μM
[12] = read-out: Intact cells (%) (1 μM), Table 2 (17β-HSD3)
[13] = Table 2 (17β-HSD3), read-out: Homo (%) (0.1 μM)
[14] = Table 2 (17β-HSD3), 1 μM, read-out: Homo (%) (1 μM)
[15] = Table 2 (17β-HSD3), read-out: Intact cells (%) (0.1 μM)
[16] = Table 2 (17β-HSD3), read-out: Intact cells (%) (1 μM)
[17] = read-out: Intact cells (%) (0.1 μM), Table 4

CC1CN(C(=O)C2CCCCC2)C(C)CN1C[C@@]1(O)CC[C@@]2(C)[C@@H](CC[C@@H]3[C@@H]2CC[C@]2(C)C(=O)CC[C@@H]32)C1 (stereo partly drawn) [Compound 13b, (3α,5α)-3-{[(2ξ,5ξ)-4-(cyclohexylcarbonyl)-2,5-dimethylpiperazin-1-yl]methyl}-3-hydroxyandrostan-17-one] was tested, and the “Homo (%) (0.01 μM)” value (17β-HSD3 [1]; Table 3) was 24%, the “Homo (%) (0.1 μM)” value (17β-HSD3 [1]; Table 3) was 90% and the “Intact cells (%) (0.1 μM)” value (17β-HSD3 [2]; Table 3) was 77%.
In the case of CC1CN(C[C@@]2(O)CC[C@@]3(C)[C@@H](CC[C@@H]4[C@@H]3CC[C@]3(C)C(=O)CC[C@@H]43)C2)C(C)CN1Cc1cc(C(F)(F)F)ccc1C(F)(F)F (stereo partly drawn) [Compound 11h, (3α,5α)-3-({(2ξ,5ξ)-4-[2,5-bis(trifluoromethyl)benzyl]-2,5-dimethylpiperazin-1-yl}methyl)-3-hydroxyandrostan-17-one], the “Homo (%) (0.01 μM)” value (17β-HSD3 [1]; Table 3) is reported as 16%, the “Homo (%) (0.1 μM)” value (17β-HSD3 [1]; Table 3) is reported as 71% and the “Intact cells (%) (0.1 μM)” value (17β-HSD3 [2]; Table 3) is reported as 23%.
In the case of CCCN(CCC)CCN1C[C@]2(CC[C@@]3(C)[C@@H](CC[C@@H]4[C@@H]3CC[C@]3(C)C(=O)CC[C@@H]43)C2)OC1=O [Compound 23f, (3R,5S,8R,9S,10S,13S,14S)-3′-[2-(dipropylamino)ethyl]-10,13-dimethyltetradecahydro-2′H-spiro[cyclopenta[α]phenanthrene-3,5′-[1,3]oxazolidine]-2′,17(2H)-dione], the inhibition at 0.01 µM (17β-HSD3 [1]; [3]) is reported as 0%, the inhibition at 0.1 µM (17β-HSD3 [1]; [4]) is reported as 10% and the inhibition at 1 µM (17β-HSD3 [1]; [5]) is reported as 62%. The “Intact cells (%) (0.1 μM), tested in another experiment” value (17β-HSD3 [2]) was 8^b %.
C[C@]12CC[C@](O)(CN3CCN(C(=O)c4ccc(C(F)(F)F)cc4)CC3)C[C@@H]1CC[C@@H]1[C@@H]2CC[C@]2(C)C(=O)CC[C@@H]12 [Compound 12e, (3α,5α)-3-hydroxy-3-[(4-{[4-(trifluoromethyl)phenyl]carbonyl}piperazin-1-yl)methyl]androstan-17-one] gave an inhibition at 0.01 µM (17β-HSD3 [1]; [6]) of 22%, an inhibition at 0.1 µM (17β-HSD3 [1]; [7]) of 84% and an inhibition at 0.1 µM (17β-HSD3 [2]; [8]) of 56%.
For CC1CN(C(=O)c2cccc(C(F)(F)F)c2)C(C)CN1CC1(O)CCC2(C)C(CCC3C4CCC(=O)C4(C)CCC32)C1 (stereo not drawn) [Compound 13c, (3α,5α)-3-{[(2ξ,5ξ)-2,5-dimethyl-4-{[3-(trifluoromethyl)phenyl]carbonyl}piperazin-1-yl]methyl}-3-hydroxyandrostan-17-one], the “Homo (%) (0.01 μM)” value (17β-HSD3 [1]; Table 3) was 28%, the “Homo (%) (0.1 μM)” value (17β-HSD3 [1]; Table 3) was 89% and the “Intact cells (%) (0.1 μM)” value (17β-HSD3 [2]; Table 3) was 70%.
C[C@]12CC[C@](O)(CN3CCN(c4ccccc4)CC3)C[C@@H]1CC[C@@H]1[C@@H]2CC[C@]2(C)C(=O)CC[C@@H]12 [Compound 7i, (3α,5α)-3-hydroxy-3-[(4-phenylpiperazin-1-yl)methyl]androstan-17-one] showed an inhibition at 0.01 µM (17β-HSD3 [1]; [9]) of 13%, an inhibition at 0.1 µM (17β-HSD3 [1]; [10]) of 78% and an inhibition at 1 µM (17β-HSD3 [1]; [11]) of 89%. It also gave an inhibition at 1 µM (17β-HSD3 [2]; [12]) of 68%.
C[C@]12CC[C@](O)(CN3CCCCC3)C[C@@H]1CC[C@@H]1[C@@H]2CC[C@]2(C)C(=O)CC[C@@H]12 [Compound 7e, (3α,5α)-3-hydroxy-3-(piperidin-1-ylmethyl)androstan-17-one] showed an inhibition at 0.01 µM (17β-HSD3 [1]; [9]) of 9%, an inhibition at 0.1 µM (17β-HSD3 [1]; [10]) of 19% and an inhibition at 1 µM (17β-HSD3 [1]; [11]) of 69%. For the same compound, the inhibition at 1 µM (17β-HSD3 [2]; [12]) was 23%.
In the case of CCCCN(CCCC)C[C@@]1(O)CC[C@@]2(C)[C@@H](CC[C@@H]3[C@@H]2CC[C@]2(C)C(=O)CC[C@@H]32)C1 [Compound 7d, (3α,5α)-3-[(dibutylamino)methyl]-3-hydroxyandrostan-17-one], the inhibition at 0.1 µM (17β-HSD3 [1]; [13]) is reported as 70%, the inhibition at 1 µM (17β-HSD3 [1]; [14]) is reported as 85% and the inhibition at 0.01 µM (17β-HSD3 [1]; [9]) is reported as 13%. The inhibition at 0.1 µM (17β-HSD3 [2]; [15]) was 53% and the inhibition at 1 µM (17β-HSD3 [2]; [16]) was 90%.
CCN(CC)C[C@@]1(O)CC[C@@]2(C)[C@@H](CC[C@@H]3[C@@H]2CC[C@]2(C)C(=O)CC[C@@H]32)C1 [Compound 7c, (3α,5α)-3-[(diethylamino)methyl]-3-hydroxyandrostan-17-one] gave an inhibition at 0.1 µM (17β-HSD3 [1]; [13]) of 10%, an inhibition at 1 µM (17β-HSD3 [1]; [14]) of 60% and an inhibition at 0.01 µM (17β-HSD3 [1]; [9]) of 0%. It also gave an inhibition at 1 µM (17β-HSD3 [2]; [16]) of 14%.
For CCN(CCN1C[C@]2(CC[C@@]3(C)[C@@H](CC[C@@H]4[C@@H]3CC[C@]3(C)C(=O)CC[C@@H]43)C2)OC1=O)C1CCCCC1 [Compound 23e, (3R,5S,8R,9S,10S,13S,14S)-3′-{2-[cyclohexyl(ethyl)amino]ethyl}-10,13-dimethyltetradecahydro-2′H-spiro[cyclopenta[α]phenanthrene-3,5′-[1,3]oxazolidine]-2′,17(2H)-dione], the inhibition at 0.01 µM (17β-HSD3 [1]; [3]) was 2%, the inhibition at 0.1 µM (17β-HSD3 [1]; [4]) was 21% and the inhibition at 1 µM (17β-HSD3 [1]; [5]) was 72%. For the same compound, the inhibition at 0.1 µM (17β-HSD3 [2]; [17]) was 2%.
Compound C[C@]12CC[C@@]3(C[C@@H]1CC[C@@H]1[C@@H]2CC[C@]2(C)C(=O)CC[C@@H]12)CN(CCN1CCCCC1)C(=O)O3 [Compound 23c, (3R,5S,8R,9S,10S,13S,14S)-10,13-dimethyl-3′-[2-(piperidin-1-yl)ethyl]tetrahydrodecahydro-2′H-spiro[cyclopenta[α]phenanthrene-3,5′-[1,3]oxazolidine]-2′,17(2H)-dione] has an inhibition at 0.01 µM (17β-HSD3 [1]; [3]) of 0%, an inhibition at 0.1 µM (17β-HSD3 [1]; [4]) of 0% and an inhibition at 1 µM (17β-HSD3 [1]; [5]) of 21%. The “Intact cells (%) (0.1 μM), tested in another experiment” value (17β-HSD3 [2]) was 10^b %.
C[C@]12CC[C@@]3(C[C@@H]1CC[C@@H]1[C@@H]2CC[C@]2(C)C(=O)CC[C@@H]12)CN(C1CCCCC1)C(=O)O3 [Compound 17i, (3R,5S,8R,9S,10S,13S,14S)-3′-cyclohexyl-10,13-dimethyltetradecahydro-2′H-spiro[cyclopenta[α]phenanthrene-3,5′-[1,3]oxazolidine]-2′,17(2H)-dione] was tested, and the inhibition at 0.01 µM (17β-HSD3 [1]; [3]) was 13%, the inhibition at 0.1 µM (17β-HSD3 [1]; [4]) was 75% and the inhibition at 1 µM (17β-HSD3 [1]; [5]) was 78%. The inhibition at 0.1 µM (17β-HSD3 [2]; [17]) was 29%.
Compound Cc1ccc(CN2C[C@]3(CC[C@@]4(C)[C@@H](CC[C@@H]5[C@@H]4CC[C@]4(C)C(=O)CC[C@@H]54)C3)OC2=O)cc1 [Compound 17b, (3R,5S,8R,9S,10S,13S,14S)-10,13-dimethyl-3′-(4-methylbenzyl)tetrahydrodecahydro-2′H-spiro[cyclopenta[α]phenanthrene-3,5′-[1,3]oxazolidine]-2′,17(2H)-dione] has an inhibition at 0.01 µM (17β-HSD3 [1]; [3]) of 17%, an inhibition at 0.1 µM (17β-HSD3 [1]; [4]) of 81% and an inhibition at 1 µM (17β-HSD3 [1]; [5]) of 93%. It also gave an inhibition at 0.1 µM (17β-HSD3 [2]; [17]) of 38%.
CN1CCN(C[C@@]2(O)CC[C@@]3(C)[C@@H](CC[C@@H]4[C@@H]3CC[C@]3(C)C(=O)CC[C@@H]43)C2)CC1 [Compound 7h, (3α,5α)-3-hydroxy-3-[(4-methylpiperazin-1-yl)methyl]androstan-17-one] showed an inhibition at 0.1 µM (17β-HSD3 [1]; [13]) of 0%, an inhibition at 1 µM (17β-HSD3 [1]; [14]) of 40% and an inhibition at 0.01 µM (17β-HSD3 [1]; [9]) of 0%. For the same compound, the inhibition at 0.1 µM (17β-HSD3 [2]; [15]) was 2%.
Cc1cccc(S(=O)(=O)CCN2C[C@]3(CC[C@@]4(C)[C@@H](CC[C@@H]5[C@@H]4CC[C@]4(C)C(=O)CC[C@@H]54)C3)OC2=O)c1 [Compound 23b] was tested, and the inhibition at 0.01 µM (17β-HSD3 [1]; [3]) was 0%, the inhibition at 0.1 µM (17β-HSD3 [1]; [4]) was 52% and the inhibition at 1 µM (17β-HSD3 [1]; [5]) was 93%. The inhibition at 0.1 µM (17β-HSD3 [2]; [17]) was 5%.
Compound C[C@]12CC[C@@]3(C[C@@H]1CC[C@@H]1[C@@H]2CC[C@]2(C)C(=O)CC[C@@H]12)CN(Cc1cccc(C(F)(F)F)c1)C(=O)O3 [Compound 17g, (3R,5S,8R,9S,10S,13S,14S)-10,13-dimethyl-3′-[3-(trifluoromethyl)benzyl]tetradecahydro-2′H-spiro[cyclopenta[α]phenanthrene-3,5′-[1,3]oxazolidine]-2′,17(2H)-dione] has an inhibition at 0.01 µM (17β-HSD3 [1]; [3]) of 16%, an inhibition at 0.1 µM (17β-HSD3 [1]; [4]) of 80% and an inhibition at 0.1 µM (17β-HSD3 [2]; [17]) of 36%.
Work on C[C@]12CC[C@](O)(CN3CCN(C(=O)c4cccc(C(F)(F)F)c4)CC3)C[C@@H]1CC[C@@H]1[C@@H]2CC[C@]2(C)C(=O)CC[C@@H]12 [Compound 12d, (3α,5α)-3-hydroxy-3-[(4-{[3-(trifluoromethyl)phenyl]carbonyl}piperazin-1-yl)methyl]androstan-17-one] yielded an inhibition at 0.01 µM (17β-HSD3 [1]; [6]) of 10%, an inhibition at 0.1 µM (17β-HSD3 [1]; [7]) of 92% and an inhibition at 0.1 µM (17β-HSD3 [2]; [8]) of 91%.
Work on C[C@]12CC[C@](O)(CN3CCN(C(=O)c4ccccc4)CC3)C[C@@H]1CC[C@@H]1[C@@H]2CC[C@]2(C)C(=O)CC[C@@H]12 [Compound 12a, (3α,5α)-3-hydroxy-3-{[4-(phenylcarbonyl)piperazin-1-yl]methyl}androstan-17-one] yielded an inhibition at 0.01 µM (17β-HSD3 [1]; read-out: Homo (%) (0.01 μM), Table 3) of 17%, an inhibition at 0.1 µM (17β-HSD3 [1]; read-out: Homo (%) (0.1 μM), Table 3) of 76% and an inhibition at 0.1 µM (17β-HSD3 [2]; read-out: Intact cells (%) (0.1 μM), Table 3) of 50%.
C[C@]12CCC(=O)C=C1CC[C@@H]1[C@@H]2CC[C@]2(C)C(=O)CC[C@@H]12 [Δ^4-dione, 4-androstene-3,17-dione, reference compound] gave an IC50 (17β-HSD3 [2]; intact HEK-293 cells overexpressing 17β-HSD3, [14C]-Δ4-dione 50 nM) of 337 nM.
